Experiments:
[1] = tested on: A-549 (lung carcinoma); assay: MTT cell proliferation assay, A-549; type: cell-based, human; conditions: 72 h incubation, 95% confidence interval in parentheses
Experimental: (§1) To use these S-glycosidic compounds in cellulo, the potential impact of the glycosidic linkage nature on the anticancer activity was assessed. The S-glycoside derivatives and the 7-MC were tested against four human cancer cell lines and a healthy one, namely A549 (lung carcinoma), HS-683 (glioma cancer), MCF-7 (breast adenocarcinoma), SK-MEL-28 (melanoma skin cancer), and HaCaT (keratinocyte normal skin), using MTT (thiazolyl blue tetrazolium bromide, Sigma-Aldrich, St. Louis, MO, USA) assay, as previously described in the literature.
Cell proliferation of five distinct cell lines was evaluated using the colorimetric MTT (thiazolyl blue tetrazolium bromide, Sigma) assay. Human keratinocyte normal skin HaCaT was cultivated in DMEM supplemented with 4.5 g/L glucose, 2 mM L-glutamine, and 10% FBS. Cancer cell lines and their respective growth media were obtained from CLS Cell Line Service GmbH (Eppelheim, Germany). Specifically, human skin melanoma SK-MEL-28 and human brain glioma HS683 were cultivated in DMEM with identical supplements as HaCaT cells. The human lung carcinoma cell line A-549 was grown in DMEM/Ham’s F12 (1:1) medium supplemented with 2 mM L-glutamine and 5% FBS. Additionally, human breast adenoma carcinoma MCF-7 cells were sustained in EMEM supplemented with 2 mM L-glutamine, sodium pyruvate, non-essential amino acids (NEAAs), 10 µg/mL insulin human, and 10% FBS. The MTT assay relies on the reduction of the yellow product thiazolyl blue tetrazolium bromide (MTT) to formazan, a purple-blue product, by mitochondrial dehydrogenases in metabolically active cells. The number of living cells after incubation in the presence (or absence, control) of the tested molecules is directly proportional to the blue color, which was measured by spectrophotometry. To perform the assay, cells were initially seeded at a density of 2500 cells/mL in 96-well culture plates (Nunc™ Edge 2.0, Fisher) and allowed to adhere and proliferate over a 24-hour incubation period. Following this, the cells were treated with various concentrations of the tested compounds, which were previously prepared as serial dilutions and dissolved in 0.1% DMSO. […] Each concentration of the tested compounds underwent triplicate testing (n = 3), and cells were subsequently incubated for 72 h to allow for thorough evaluation. Following this incubation period, MTT reagent (5 mg/mL solution in PBS) was introduced to each well (10% v/v), and cells were further incubated for 4 h. Then, the culture medium was carefully removed, and the resulting blue formazan crystals were dissolved in 100 µL of 100% DMSO. Absorbance readings were taken at 540 nm, referencing a wavelength of 620 nm, using a spectrophotometer. In determining the IC50, the absorbance of serial dilutions of each cell line, treated under identical conditions but without the presence of the tested compounds, was measured.

[2] = tested on: HS683 (brain glioma); assay: MTT cell proliferation assay, HS683; type: cell-based; conditions: Homo sapiens, Hs 683, 72 h incubation, 95% confidence interval in parentheses
Experimental: as §1, with “literature. The selected reference drugs were 5-fluorouracil (5-FU) and etoposide.” for “literature.”
Cell proliferation of five distinct cell lines was evaluated using the colorimetric MTT (thiazolyl blue tetrazolium bromide, Sigma) assay. Human keratinocyte normal skin HaCaT was cultivated in DMEM supplemented with 4.5 g/L glucose, 2 mM L-glutamine, and 10% FBS. Cancer cell lines and their respective growth media were obtained from CLS Cell Line Service GmbH (Eppelheim, Germany). Specifically, human skin melanoma SK-MEL-28 and human brain glioma HS683 were cultivated in DMEM with identical supplements as HaCaT cells. The human lung carcinoma cell line A-549 was grown in DMEM/Ham’s F12 (1:1) medium supplemented with 2 mM L-glutamine and 5% FBS. Additionally, human breast adenoma carcinoma MCF-7 cells were sustained in EMEM supplemented with 2 mM L-glutamine, sodium pyruvate, non-essential amino acids (NEAAs), 10 µg/mL insulin human, and 10% FBS. The MTT assay relies on the reduction of the yellow product thiazolyl blue tetrazolium bromide (MTT) to formazan, a purple-blue product, by mitochondrial dehydrogenases in metabolically active cells. The number of living cells after incubation in the presence (or absence, control) of the tested molecules is directly proportional to the blue color, which was measured by spectrophotometry. To perform the assay, cells were initially seeded at a density of 2500 cells/mL in 96-well culture plates (Nunc™ Edge 2.0, Fisher) and allowed to adhere and proliferate over a 24-hour incubation period. Following this, the cells were treated with various concentrations of the tested compounds, which were previously prepared as serial dilutions and dissolved in 0.1% DMSO. These stable solutions guarantee the consistency of experimental conditions over extended periods. Each concentration of the tested compounds underwent triplicate testing (n = 3), and cells were subsequently incubated for 72 h to allow for thorough evaluation. Following this incubation period, MTT reagent (5 mg/mL solution in PBS) was introduced to each well (10% v/v), and cells were further incubated for 4 h. Then, the culture medium was carefully removed, and the resulting blue formazan crystals were dissolved in 100 µL of 100% DMSO. Absorbance readings were taken at 540 nm, referencing a wavelength of 620 nm, using a spectrophotometer. In determining the IC50, the absorbance of serial dilutions of each cell line, treated under identical conditions but without the presence of the tested compounds, was measured.

| Structure (SMILES) | IC50 ([1]; Homo sapiens, A549, 72 h) | IC50 [2] | IC50 [1] |
| --- | --- | --- | --- |
| Cc1cc(=O)oc2cc(S)ccc12 [Compound 7-MC, 7-mercapto-4-methylcoumarin, reference compound] | > 1000 µM |  |  |
| Cc1cc(=O)oc2cc(S[C@@H]3O[C@H](C(=O)O)[C@@H](O)[C@H](O)[C@H]3O)ccc12 [Compound S-1, 4-Methylumbellifer-7-yl 1-thio-β-D-glucopyranosiduronic acid] | > 1000 µM | > 1000 µM |  |
| Cc1cc(=O)oc2cc(S[C@@H]3OC[C@@H](O)[C@H](O)[C@H]3O)ccc12 [Compound S-2, 4-Methylumbellifer-7-yl 1-thio-β-D-xylopyranoside] | 74 µM | 275 µM | 74.8 µM |
| Cc1cc(=O)oc2cc(S[C@@H]3O[C@H](CO)[C@@H](O)[C@H](O)[C@H]3O)ccc12 [Compound S-3, 4-Methylumbellifer-7-yl 1-thio-β-D-glucopyranoside] | > 1000 µM | > 1000 µM |  |
| Cc1cc(=O)oc2cc(S[C@@H]3O[C@H](CO)[C@H](O)[C@H](O)[C@H]3O)ccc12 [Compound S-4, 4-Methylumbellifer-7-yl 1-thio-β-D-galactopyranoside] | > 1000 µM | > 1000 µM |  |
| Cc1cc(=O)oc2cc(S[C@@H]3O[C@H](C)[C@H](O)[C@H](O)[C@H]3O)ccc12 [Compound S-5, 4-Methylumbellifer-7-yl 1-thio-β-D-fucopyranoside] | > 1000 µM | > 1000 µM |  |
| Cc1cc(=O)oc2cc(S[C@H]3O[C@H](CO)[C@H](O)[C@H](O)[C@H]3O)ccc12 [Compound S-6, 4-Methylumbellifer-7-yl 1-thio-α-D-galactopyranoside] | > 1000 µM | > 1000 µM |  |

Reference: publication PMC10974290, “Biocatalytic Synthesis of Coumarin S-Glycosides: Towards Non-Cytotoxic Probes for Biomedical Imaging and Sensing” (Molecules, 2024)
